Experimental data taken from patent US7176216B2, “7-phenylpyrazolopyridine compounds” (Eisai Co., Ltd., priority 2002, dated 2007).
Where two headings read alike, the source gives them in different places.

How the values were obtained:
[1] = system: CRF-induced cAMP production in AtT-20 cells; assay: cAMP production inhibition experiment using AtT-20 cells; assay type: cell-based; conditions: Mus musculus, AtT20, CRF 30 nM
Procedure: <cAMP Production Inhibition Experiment Using AtT-20 Cells>
AtT-20 cell is a cell-line derived from mouse pituitary gland tumor, which is known to respond to corticotropin releasing hormone (CRF), to produce cAMP by activation of the intracellular adenylate cyclase system, and to release adrenocorticotropic hormone (ACTH) (Biochem. Biophys. Res. Com., 106, 1364–1371, 1982). In this experiment, AtT-20 cells (1×10^5) were suspended in D-MEM (0.1% FBS) and seeded in a 96-well plate, and then 1 mM (final concentration) phosphodiesterase inhibitor (IBMX, Calbiochem) was added prior to incubation for 30 minutes at 37° C. The diluted test compound solution was then added prior to incubation for 30 minutes at 37° C., and CRF (final concentration: 30 nM) was added prior to further incubation for 30 minutes at 37° C. The cells were collected by centrifugation (1,800 rpm (630×g), 5 minutes), and then lysed with lysis buffer (0.2% dodecyltrimethylammmonium bromide), and the intracellular cAMP production was assayed by HTRF method. cAMP kit HTRF (Nihon Schering) was used for the cAMP assay.
(2) Calculation of cAMP Production Inhibitory Activity;
The cAMP production of each sample was represented as a percentage (% of control), with the CRF (final concentration: 30 nM)-added cells defined as 100% (control).

CYP3A4 = conditions: human, hepatocytes, 48 h
Procedure: Evaluation of Drug Metabolizing Enzyme (CYP3A4) Inducibility Using Cryopreserved Human Hepatocyte
Cryopreserved hepatocytes (In Vitro Technology) were rapidly thawed while stirring at 37° C., and then ice-cooled William's Medium E (10% FBS, +PSG) was slowly added to the cells prior to centrifugation at 500 rpm for 5 minutes. After removing the supernatant, the obtained hepatocytes were diluted with ice-cooled William's Medium E to a concentration of 5×10^5 cells/mL, seeded on a 48-well collagen coated plate (BD Biosciences) at 1×10^5 cells/cm^2 and incubated for about 24 hours at 37° C., 5% CO2, after which the medium was changed with Hepato-STIM™ (BD Biosciences) (+EGF, PSG, −FBS) and culture was maintained for another 24 hours under conditions of 37° C., 5% CO2. At approximately 48 hours after the cell seeding, the test compound or rifampicin (SIGMA, positive control) in the form of a diluted solution (using Hepato-STIM™ (+EGF, PSG, −FBS)) was added, hepatocyte were incubated for about 24 hours under conditions of 37° C., 5% CO2, and the culture medium was changed with medium containing a freshly prepared dilution of the test compound or rifampicin prior to further incubation for 24 hours under the same conditions. After incubation, the cells were washed once with PBS, and the total RNA was extracted using a Qiagen RNeasy Mini kit (Qiagen). The cDNA was synthesized by reverse-transcription of extracted using TaqMan Reverse Transcription Reagents (Applied Biosystems). The reverse transcription reaction was carried out using oligo dT as primer, with treatment at 25° C. for 10 minutes followed by treatment at 48° C. for 60 minutes, after which the reverse transcriptase was inactivated by treatment at 95° C. for 10 minutes. The obtained cDNA was supplied to a PCR using a Gene Amp PCR system 9700. The obtained cDNA was quantitated using an SYBR Green PCR Core Reagents kit (Applied Biosystems), and the human CYP3A4 and GAPDH mRNA was quantitated using an ABI7700 (Applied Biosystems). The abbreviations used in the test example are explained below. • FBS: Fetal Bovine Serum • PSG: Penicillin (100 U/ml), Streptomycin (100 μg/ml), Glutamine (2 mM) • EGF: Epidermal Growth Factor • GAPDH: Glyceraldehyde-3-Phosphate Dehydrogenase
(2) Calculation of CYP3A4 Inducibility:
Next, for comparison of each test run, the differences between the value of the CYP3A4 mRNA amount divided by the GAPDH mRNA amount with addition of the test compound at various concentrations and with addition of the negative control were calculated as percentages, with 100% being defined as the difference between the values of the CYP3A4 mRNA amount divided by the GAPDH mRNA amount for the positive control and negative control, to determine the inducibility of each test compound.

human CRFR1 = molecular target: T1, human CRFR1 (Homo sapiens, UniProt P34998); assay: CRFR binding experiment (125I-CRF, SPA, membrane fraction of CRFR1-expressing HEK293 cells); conditions: 100 pM 125I-CRF, read-out: CRF1 receptor binding affinity IC50
T1 construct: The full-length CRFR1 gene was obtained by PCR using human brain cDNA library; expressed in transfected cells
T1 sequence (P34998 24-415): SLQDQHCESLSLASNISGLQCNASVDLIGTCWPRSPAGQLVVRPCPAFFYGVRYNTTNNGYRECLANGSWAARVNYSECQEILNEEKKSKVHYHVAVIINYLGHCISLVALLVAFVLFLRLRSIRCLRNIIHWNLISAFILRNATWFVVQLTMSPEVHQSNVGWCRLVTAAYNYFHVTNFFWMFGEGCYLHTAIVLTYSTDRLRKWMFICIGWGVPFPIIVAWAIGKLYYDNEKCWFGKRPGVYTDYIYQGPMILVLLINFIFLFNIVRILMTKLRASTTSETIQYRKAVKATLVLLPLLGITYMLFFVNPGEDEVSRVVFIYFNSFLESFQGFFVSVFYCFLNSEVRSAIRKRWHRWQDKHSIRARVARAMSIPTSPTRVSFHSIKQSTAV
Procedure: <CRFR Binding Experiment>
The full-length CRFR1 gene was obtained by PCR using human brain cDNA library (QuickClone™ Clontech). […] The CRFR1 expression vector was introduced into HEK293 cell, and the resistant cells which proliferated in culture medium containing G418 (1 mg/ml) were cloned by the limiting dilution method. […] And the selected cells were used for the experiments.

Compound | IC50 [1] [nM] | % of Positive Control (CYP3A4 inducibility) (CYP3A4; 0.03 μM) [%] | % of Positive Control (CYP3A4 inducibility) (CYP3A4; 0.1 μM) [%] | % of Positive Control (CYP3A4 inducibility) (CYP3A4; 0.3 μM) [%] | % of Positive Control (CYP3A4 inducibility) (CYP3A4; 1 μM) [%] | inducibility (CYP3A4), positive control defined as 100% (CYP3A4; 1 μM) [%] | % of Positive Control (CYP3A4 inducibility) (CYP3A4; 3 μM) [%] | % of Positive Control (CYP3A4 inducibility) (CYP3A4; 10 μM) [%] | IC50 (human CRFR1) [nM]
CCOCc1cc(OC)c(-c2cccc3c(N(CC4CCOCC4)CC4CC4)c(CC)nn23)c(OC)c1 [Example 3, N-Cyclopropylmethyl-N-7-[4-(ethoxymethyl)-2,6-dimethoxyphenyl]-2-ethylpyrazolo[1,5-a]pyridin-3-yl-N-tetrahydro-2H-4-pyranylmethylamine] | 5.1 | 3 | 3 | 7 | 25 | ≤ 40 | 23 | 34 | –
CCCN(CC1CCOCC1)c1c(CC)nn2c(-c3c(OC)cc(COC)cc3OC)cccc12 [Example 13, N-7-[2,6-Dimethoxy-4-(methoxymethyl)phenyl]-2-ethylpyrazolo[1,5-a]pyridin-3-yl-N-propyl-N-tetrahydro-2H-4-pyranylmethylamine] | 11 | – | – | – | – | – | – | – | –
CCCN(CC1CCOCC1)c1c(CC)nn2c(-c3c(OC)cc(COCC)cc3OC)cccc12 [Example 23, N-7-[4-(Ethoxymethyl)-2,6-dimethoxyphenyl]-2-ethylpyrazolo[1,5-a]pyridin-3-yl-N-propyl-N-tetrahydro-2H-4-pyranylmethylamine] | 6 | – | – | – | – | – | – | – | 50
COCc1cc(OC)c(-c2cccc3c(N(CC4CC4)CC4CCOC4)c(SC)nn23)c(OC)c1 (stereo not drawn) [Example 60, N-Cyclopropylmethyl-N-[7-[2,6-dimethoxy-4-(methoxymethyl)phenyl]-2-(methylsulfanyl)pyrazolo[1,5-a]pyridin-3-yl]-N-tetrahydro-3-furanylmethylamine] | 3.5 | – | – | – | – | – | – | – | 30

Next, values leading:

IC50 [1] [nM] | % of Positive Control (CYP3A4 inducibility) (CYP3A4; 0.03 μM) [%] | % of Positive Control (CYP3A4 inducibility) (CYP3A4; 0.1 μM) [%] | % of Positive Control (CYP3A4 inducibility) (CYP3A4; 0.3 μM) [%] | % of Positive Control (CYP3A4 inducibility) (CYP3A4; 1 μM) [%] | inducibility (CYP3A4), positive control defined as 100% (CYP3A4; 1 μM) [%] | % of Positive Control (CYP3A4 inducibility) (CYP3A4; 3 μM) [%] | % of Positive Control (CYP3A4 inducibility) (CYP3A4; 10 μM) [%] | IC50 (human CRFR1) [nM] | Compound
4 | 6 | 7 | 12 | 20 | ≤ 40 | 36 | 65 | – | CCc1nn2c(-c3c(OC)cc(COC)cc3OC)cccc2c1N(CC1CCOCC1)CC1CC1 [Example 1, N-Cyclopropylmethyl-N-7-[2,6-dimethoxy-4-(methoxymethyl)phenyl]-2-ethylpyrazolo[1,5-a]pyridin-3-yl-N-tetrahydro-2H-4-pyranylmethylamine]
50 | – | – | – | – | – | – | – | – | COCc1cc(OC)c(-c2cccc3c(N(CC4CCOCC4)CC4CC4)c(OC)nn23)c(OC)c1 [Example 47, N-Cyclopropylmethyl-N-7-[2,6-dimethoxy-4-(methoxymethyl)phenyl]-2-methoxypyrazolo[1,5-a]pyridin-3-yl-N-tetrahydro-2H-4-pyranylmethylamine]
3.5 | 2 | 3 | 11 | 25 | ≤ 40 | 49 | 59 | – | COCc1cc(OC)c(-c2cccc3c(N(CC4CCOCC4)CC4CC4)c(SC)nn23)c(OC)c1 [Example 59, N-Cyclopropylmethyl-N-[7-[2,6-dimethoxy-4-(methoxymethyl)phenyl]-2-(methylsulfanyl)pyrazolo[1,5-a]pyridin-3-yl]-N-tetrahydro-2H-4-pyranylmethylamine]
